In US9796711B2, “Substituted pyrazolo[3,4-b]pyridin-6-carboxylic acids and method of use” (AbbVie S.àr.l., priority 2015, dated 2017):

Legend:
ΔF508-CFTR [1] = target: T1, ΔF508-CFTR (Homo sapiens, UniProt P13569, DEL508-508); experiment: CFTR cell surface levels using HRP-tagged ΔF508-CFTR expressing CFBE cells, in the presence of a co-corrector; type: cell-based
T1 construct: host or cells: CFBE41o-, doxycycline-inducible
In short: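 Cells were seeded with 0.5 μg/mL doxycycline and held 68 h at 37 °C. Test compounds plus 3 μM co-corrector (final 0.1% DMSO) were then added for 20 h at 33 °C. Washed cells received HRP substrate, and luminescence was normalized between DMSO and 3 μM co-corrector controls.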

ΔF508-CFTR [2] = target: T1, ΔF508-CFTR; experiment: CFTR cell surface levels using HRP-tagged ΔF508-CFTR expressing CFBE cells, intrinsic corrector capacity; type: cell-based
In short: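 Here the cells express ΔF508-CFTR with horseradish peroxidase inserted in extracellular loop 4, so only rescued channel at the surface gives luminescent signal. Compounds act on their own, 20 h at the reduced temperature of 33 °C; values are percent activity relative to DMSO and a 3 μM corrector.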

[3] = HRP-tagged ΔF508-CFTR expressing CFBE cells, in the presence of 3 μM co-corrector
[4] = HRP-tagged ΔF508-CFTR expressing CFBE cells, in the presence of 3 μM co-corrector, read-out: EC50
[5] = HRP-tagged ΔF508-CFTR expressing CFBE cells, intrinsic corrector capacity (no co-corrector), 33° C., 20 hours
[6] = HRP-tagged ΔF508-CFTR expressing CFBE cells, intrinsic corrector capacity (no co-corrector), 33° C., 20 hours, read-out: EC50
[7] = HRP-tagged ΔF508-CFTR CFBE41o- cells, compounds alone (intrinsic corrector capacity), 20 hours at 33° C., positive control 3 μM corrector
[8] = HRP-tagged ΔF508-CFTR CFBE41o- cells, compounds alone (intrinsic corrector capacity), 20 hours at 33° C., read-out: EC50

T1 sequence (P13569 with tags, fused parts or gaps DEL508-508): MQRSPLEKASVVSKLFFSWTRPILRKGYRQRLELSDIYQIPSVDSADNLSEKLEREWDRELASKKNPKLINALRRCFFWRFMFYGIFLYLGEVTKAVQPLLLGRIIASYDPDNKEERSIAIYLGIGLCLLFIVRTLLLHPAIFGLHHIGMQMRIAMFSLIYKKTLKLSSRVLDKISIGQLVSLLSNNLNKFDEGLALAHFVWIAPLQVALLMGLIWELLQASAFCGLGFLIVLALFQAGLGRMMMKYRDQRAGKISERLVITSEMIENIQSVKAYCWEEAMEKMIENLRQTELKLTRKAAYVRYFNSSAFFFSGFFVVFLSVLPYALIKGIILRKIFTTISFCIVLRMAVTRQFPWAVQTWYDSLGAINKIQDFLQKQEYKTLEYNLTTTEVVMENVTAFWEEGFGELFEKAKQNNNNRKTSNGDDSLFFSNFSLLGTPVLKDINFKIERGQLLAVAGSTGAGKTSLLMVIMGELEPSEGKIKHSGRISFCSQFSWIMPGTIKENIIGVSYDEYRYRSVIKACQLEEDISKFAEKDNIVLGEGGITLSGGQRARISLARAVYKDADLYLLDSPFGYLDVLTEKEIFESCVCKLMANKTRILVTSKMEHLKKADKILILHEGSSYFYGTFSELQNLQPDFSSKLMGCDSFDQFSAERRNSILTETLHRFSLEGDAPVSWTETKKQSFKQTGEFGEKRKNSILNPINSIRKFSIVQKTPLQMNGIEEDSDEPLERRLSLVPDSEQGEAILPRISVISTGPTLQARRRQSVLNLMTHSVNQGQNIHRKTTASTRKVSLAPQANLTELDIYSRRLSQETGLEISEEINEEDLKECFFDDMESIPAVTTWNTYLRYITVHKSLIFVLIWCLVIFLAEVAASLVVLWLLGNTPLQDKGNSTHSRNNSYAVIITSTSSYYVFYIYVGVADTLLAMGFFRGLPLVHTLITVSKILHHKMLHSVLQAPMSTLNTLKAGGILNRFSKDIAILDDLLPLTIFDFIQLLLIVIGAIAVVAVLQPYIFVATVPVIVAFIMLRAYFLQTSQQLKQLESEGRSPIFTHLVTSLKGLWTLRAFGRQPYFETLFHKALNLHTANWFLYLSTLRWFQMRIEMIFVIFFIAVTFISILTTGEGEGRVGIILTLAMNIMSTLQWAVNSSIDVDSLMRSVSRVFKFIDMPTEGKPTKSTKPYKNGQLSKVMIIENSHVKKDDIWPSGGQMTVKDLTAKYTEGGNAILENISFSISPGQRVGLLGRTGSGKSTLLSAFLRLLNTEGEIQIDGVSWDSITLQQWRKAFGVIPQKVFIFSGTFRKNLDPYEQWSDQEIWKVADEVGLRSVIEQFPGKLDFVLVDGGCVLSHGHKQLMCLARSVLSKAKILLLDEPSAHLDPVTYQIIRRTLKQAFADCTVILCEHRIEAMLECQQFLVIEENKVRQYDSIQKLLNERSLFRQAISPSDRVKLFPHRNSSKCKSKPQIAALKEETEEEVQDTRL

| Compound | % Activation (ΔF508-CFTR [1]; [3]) [%] | EC50 (ΔF508-CFTR [1]; [4]) [µM] | % Activation (ΔF508-CFTR [2]; [5]) [%] | EC50 (ΔF508-CFTR [2]; [6]) [µM] | % Activation (ΔF508-CFTR [2]; [7]) [%] | EC50 (ΔF508-CFTR [2]; [8]) [µM] | EC50 (ΔF508-CFTR [1]) [µM] | EC50 (ΔF508-CFTR [2]) [µM] | % Activation (ΔF508-CFTR [2]; HRP-tagged ΔF508-CFTR CFBE cells, compound alone (intrinsic corrector capacity), 20 hours at 33° C.) [%] | EC50 (ΔF508-CFTR [2]; HRP-tagged ΔF508-CFTR CFBE cells, compound alone (intrinsic corrector capacity), 20 hours at 33° C., read-out: EC50) [µM] |
| --- | --- | --- | --- | --- | --- | --- | --- | --- | --- | --- |
| CO[C@@H]1CCN(c2cc(C(=O)O)nc3c2c(C2CCC2)nn3-c2ccccc2)C1 [compound 522, 3-cyclobutyl-4-[(3R)-3-methoxypyrrolidin-1-yl]-1-phenyl-1H-pyrazolo[3,4-b]pyridine-6-carboxylic acid] | 294.1 | 1.08 | 114 | 0.479 |  |  |  |  |  |  |
| CC(C)c1nn(C2CCCCC2)c2nc(C(=O)O)cc(-c3cn[nH]c3)c12 [compound 363, 1-cyclohexyl-3-(propan-2-yl)-4-(1H-pyrazol-4-yl)-1H-pyrazolo[3,4-b]pyridine-6-carboxylic acid] | 187.2 | 2.33 |  |  | 56.625 | 2.47 |  |  |  |  |
| CC(C)(C)OC(=O)NC[C@H]1CCN(c2cc(C(=O)O)nc3c2c(C2CCC2)nn3-c2ccccc2)C1 [compound 672, 4-[(3R)-3-{[(tert-butoxycarbonyl)amino]methyl}pyrrolidin-1-yl]-3-cyclobutyl-1-phenyl-1H-pyrazolo[3,4-b]pyridine-6-carboxylic acid] | 343.15 |  | 141.6 |  |  |  | 0.553 | 0.748 |  |  |
| CC(C)c1nn(-c2cccc(N(C)C)c2)c2nc(C(=O)O)cc(N3CCCCC3)c12 [compound 328, 1-[3-(dimethylamino)phenyl]-4-(piperidin-1-yl)-3-(propan-2-yl)-1H-pyrazolo[3,4-b]pyridine-6-carboxylic acid] | 422.25 | 0.463 |  |  | 196.9 | 0.671 |  |  |  |  |
| COCCC1(CCOc2cc(C(=O)O)nc3c2c(C2CCC2)nn3-c2ccccc2)CC1 [compound 484, 3-cyclobutyl-4-{2-[1-(2-methoxyethyl)cyclopropyl]ethoxyl}-1-phenyl-1H-pyrazolo[3,4-b]pyridine-6-carboxylic acid] | 226.6 | 0.369 | 113.5 | 1.11 |  |  |  |  |  |  |
| CC(C)c1nn(-c2ccc(F)cc2)c2nc(C(=O)O)cc(N3CC(N4CCCC4)C3)c12 [compound 794, 1-(4-fluorophenyl)-3-(propan-2-yl)-4-[3-(pyrrolidin-1-yl)azetidin-1-yl]-1H-pyrazolo[3,4-b]pyridine-6-carboxylic acid] | 168.7 | 0.788 | 58.82 | 1.67 |  |  |  |  |  |  |
| CC(C)c1nn(-c2ccc(F)cc2)c2nc(C(=O)O)cc(-c3cnc(N(C)C4CCOCC4)nc3)c12 [compound 280, 1-(4-fluorophenyl)-4-{2-[methyl(oxan-4-yl)amino]pyrimidin-5-yl}-3-(propan-2-yl)-1H-pyrazolo[3,4-b]pyridine-6-carboxylic acid] | 440.83 | 0.249 |  |  | 238.6 | 0.485 |  |  |  |  |
| COC1CCN(C2CCN(c3cc(C(=O)O)nc4c3c(C3CCC3)nn4-c3ccc(F)cc3)CC2)C1 (stereo not shown) [compound 848, 3-cyclobutyl-1-(4-fluorophenyl)-4-[4-(3-methoxypyrrolidin-1-yl)piperidin-1-yl]-1H-pyrazolo[3,4-b]pyridine-6-carboxylic acid] | 405.2 | 0.427 | 249 | 1.2 |  |  |  |  |  |  |
| Cc1nn(-c2ccccc2)c2nc(C(=O)O)cc(N3CCC(O)CC3)c12 [compound 137, 4-(4-hydroxypiperidin-1-yl)-3-methyl-1-phenyl-1H-pyrazolo[3,4-b]pyridine-6-carboxylic acid] | 158.05 | 3.34 |  |  | 27.985 | > 10 |  |  |  |  |
| COCCCN1CCN(c2cc(C(=O)O)nc3c2c(C)nn3-c2ccccc2)CC1 [compound 321, 4-[4-(3-methoxypropyl)piperazin-1-yl]-3-methyl-1-phenyl-1H-pyrazolo[3,4-b]pyridine-6-carboxylic acid] | 196.85 | 2.51 |  |  | 39.85 | 2.51 |  |  |  |  |
| CC(=O)NC1CCN(c2cc(C(=O)O)nc3c2c(C)nn3-c2ccccc2)CC1 [compound 292, 4-(4-acetamidopiperidin-1-yl)-3-methyl-1-phenyl-1H-pyrazolo[3,4-b]pyridine-6-carboxylic acid] | 141.1 | 4.17 |  |  | 15.095 | 7.5 |  |  |  |  |
| COC1CCN(CC2CCN(c3cc(C(=O)O)nc4c3c(C3CCC3)nn4-c3ccccc3)CC2)CC1 [compound 841, 3-cyclobutyl-4-{4-[(4-methoxypiperidin-1-yl)methyl]piperidin-1-yl}-1-phenyl-1H-pyrazolo[3,4-b]pyridine-6-carboxylic acid] | 457.1 | 0.314 | 225 | 0.532 |  |  |  |  |  |  |
| CO[C@@H]1CCC[C@@H](n2nc(C(C)C)c3c(-c4ccc(N5CCOCC5)cc4)cc(C(=O)O)nc32)C1 [compound 214, 1-[(1R,3R)-3-methoxycyclohexyl]-4-[4-(morpholin-4-yl)phenyl]-3-(propan-2-yl)-1H-pyrazolo[3,4-b]pyridine-6-carboxylic acid] | 323 | 0.609 |  |  | 154 | 0.82 |  |  |  |  |
| CN1CCC([C@@H](F)COc2cc(C(=O)O)nc3c2c(C2CCC2)nn3-c2ccccc2)CC1 [compound 482, 3-cyclobutyl-4-[(2R)-2-fluoro-2-(1-methylpiperidin-4-yl)ethoxy]-1-phenyl-1H-pyrazolo[3,4-b]pyridine-6-carboxylic acid] | 284.7 | 0.709 | 144.75 | 1.64 |  |  |  |  |  |  |
| CC(C)c1nn(-c2cccc(N3CCCC3)c2)c2nc(C(=O)O)cc(-c3ccc(N(C)C4CCOCC4)nc3)c12 [compound 250, 4-{6-[methyl(oxan-4-yl)amino]pyridin-3-yl}-3-(propan-2-yl)-1[3-(pyrrolidin-1-yl)phenyl]-1H-pyrazolo[3,4-b]pyridine-6-carboxylic acid] | 622.03 | 0.508 |  |  | 394.7 | 0.456 |  |  |  |  |
| O=C(O)c1cc(N2CCC(N3CCOCC3)CC2)c2c(C3CCC3)nn(-c3ccnc(OC4CCOCC4)c3)c2n1 [compound 918, 3-cyclobutyl-4-[4-(morpholin-4-yl)piperidin-1-yl]-1-{2-[(oxan-4-yl)oxy]pyridin-4-yl}-1H-pyrazolo[3,4-b]pyridine-6-carboxylic acid] | 352.1 | 0.479 |  |  |  |  |  |  | 149.75 | 0.712 |
| Cc1cccc(-n2nc(C(C)C)c3c(N4CCC5(CCOCC5)C4)cc(C(=O)O)nc32)c1 [compound 262, 1-(3-methylphenyl)-4-(8-oxa-2-azaspiro[4.5]decan-2-yl)-3-(propan-2-yl)-1H-pyrazolo[3,4-b]pyridine-6-carboxylic acid] | 375.95 | 0.853 |  |  | 164.4 | 0.916 |  |  |  |  |
| CC(C)c1nn(-c2ccc(F)cc2)c2nc(C(=O)O)cc(N3CCC4(CCN(C)CC4)CC3)c12 [compound 781, 1-(4-fluorophenyl)-4-(9-methyl-3,9-diazaspiro[5.5]undecan-3-yl)-3-(propan-2-yl)-1H-pyrazolo[3,4-b]pyridine-6-carboxylic acid] | 368.7 | 1.56 | 154 | 1.67 |  |  |  |  |  |  |
| CC(C)c1nn(C2CCCCC2)c2nc(C(=O)O)cc(-c3ccc(N(C)C)nc3)c12 [compound 93, 1-cyclohexyl-4-[6-(dimethylamino)pyridin-3-yl]-3-(propan-2-yl)-1H-pyrazolo[3,4-b]pyridine-6-carboxylic acid] | 379.57 | 0.491 |  |  | 175.6 | 0.68 |  |  |  |  |
| CC(C)c1nn(-c2cccc(C(F)(F)F)c2)c2nc(C(=O)O)cc(-c3ccc(N(C)C4CCOCC4)nc3)c12 [compound 287, 4-{6-[methyl(oxan-4-yl)amino]pyridin-3-yl}-3-(propan-2-yl)-1[3-(trifluoromethyl)phenyl]-1H-pyrazolo[3,4-b]pyridine-6-carboxylic acid] | 464.35 | 0.429 |  |  | 234.95 | 0.535 |  |  |  |  |
| O=C(O)c1cc(N2CCN(CC3CCCO3)CC2)c2c(C3CCC3)nn(-c3ccccc3)c2n1 (stereo not shown) [compound 681, 3-cyclobutyl-4-{4-[(oxolan-2-yl)methyl]piperazin-1-yl}-1-phenyl-1H-pyrazolo[3,4-b]pyridine-6-carboxylic acid] | 373.05 | 0.197 | 220.95 | 0.408 |  |  |  |  |  |  |
| O=C(O)c1cc(OC2CCCCCC2)c2c(C3CCC3)nn(-c3ccccc3)c2n1 [compound 648, 3-cyclobutyl-4-(cycloheptyloxy)-1-phenyl-1H-pyrazolo[3,4-b]pyridine-6-carboxylic acid] | 296.1 | 0.203 | 90.745 | 0.263 |  |  |  |  |  |  |
